Type in all cases: functional, cell-based
The target in test [1] is T1, Taste receptor type 2 member 39 (Homo sapiens) (UniProt P59534).
T1 sequence (whole entry): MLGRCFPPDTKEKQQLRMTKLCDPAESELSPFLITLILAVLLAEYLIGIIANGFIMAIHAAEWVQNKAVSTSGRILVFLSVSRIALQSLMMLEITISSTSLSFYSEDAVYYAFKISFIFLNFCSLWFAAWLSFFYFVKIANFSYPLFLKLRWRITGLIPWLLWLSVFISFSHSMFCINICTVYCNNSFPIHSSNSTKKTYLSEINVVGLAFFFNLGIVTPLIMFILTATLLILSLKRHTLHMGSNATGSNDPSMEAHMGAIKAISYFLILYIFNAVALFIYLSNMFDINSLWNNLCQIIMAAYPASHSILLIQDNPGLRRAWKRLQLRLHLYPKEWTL
As to the kind of experiment: Agonist activity at recombinant human N-terminal rat ST3 receptor-fused TAS2R39 expressed in HEK293T cells co-expressing Galpha16gust44 assessed as increase in intracellular calcium level at 100 uM by FLIPR assay. (In general: A change in cytosolic calcium serves as a functional read-out for many receptors and channels.)

In test [2] the target is T2, Taste receptor type 2 member 30 (Homo sapiens) (UniProt P59541).
T2 sequence (whole entry): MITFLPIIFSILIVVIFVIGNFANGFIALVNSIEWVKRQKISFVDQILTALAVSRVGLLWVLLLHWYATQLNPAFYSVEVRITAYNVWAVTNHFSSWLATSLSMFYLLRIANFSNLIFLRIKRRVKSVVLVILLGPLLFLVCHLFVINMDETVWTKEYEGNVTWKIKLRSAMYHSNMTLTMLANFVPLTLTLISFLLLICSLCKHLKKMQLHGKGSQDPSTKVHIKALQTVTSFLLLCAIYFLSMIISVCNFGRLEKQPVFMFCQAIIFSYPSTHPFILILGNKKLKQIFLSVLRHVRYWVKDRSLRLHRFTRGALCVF
As to the kind of experiment: Antagonist activity at recombinant human N-terminal rat ST3 receptor-fused TAS2R47 expressed in HEK293T cells co-expressing Galpha16gust44 assessed as inhibition of brucine-induced intracellular calcium level at 100 uM by FLIPR assay.

Test [3] addresses T3, Taste receptor type 2 member 13 (Homo sapiens) (UniProt Q9NYV9).
T3 sequence (whole entry): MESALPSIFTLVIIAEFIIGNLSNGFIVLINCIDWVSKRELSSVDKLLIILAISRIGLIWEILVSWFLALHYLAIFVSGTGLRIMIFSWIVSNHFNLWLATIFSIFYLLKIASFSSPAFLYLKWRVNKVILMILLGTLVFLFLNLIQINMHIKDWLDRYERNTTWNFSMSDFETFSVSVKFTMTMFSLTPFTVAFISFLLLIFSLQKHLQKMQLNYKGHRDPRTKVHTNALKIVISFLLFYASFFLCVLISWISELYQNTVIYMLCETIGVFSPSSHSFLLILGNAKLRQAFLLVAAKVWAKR
Nature of the test: Antagonist activity at recombinant human N-terminal rat ST3 receptor-fused TAS2R13 expressed in HEK293T cells co-expressing Galpha16gust44 assessed as inhibition of denatonium benzoate-induced increase in intracellular calcium level at 100 uM by FLIPR assay.

Test [4] deals with T4, Taste receptor type 2 member 4 (Homo sapiens) (UniProt Q9NYW5).
T4 sequence (whole entry): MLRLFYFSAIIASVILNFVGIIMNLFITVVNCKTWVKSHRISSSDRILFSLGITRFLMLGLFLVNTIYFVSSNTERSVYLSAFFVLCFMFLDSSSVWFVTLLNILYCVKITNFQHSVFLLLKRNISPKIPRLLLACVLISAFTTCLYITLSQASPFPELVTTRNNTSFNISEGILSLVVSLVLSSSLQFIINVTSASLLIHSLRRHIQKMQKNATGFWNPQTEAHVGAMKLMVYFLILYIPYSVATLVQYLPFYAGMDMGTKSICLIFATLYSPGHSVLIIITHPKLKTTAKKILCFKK
Nature of the test: Antagonist activity at recombinant human N-terminal rat ST3 receptor-fused TAS2R4 expressed in HEK293T cells co-expressing Galpha16gust44 assessed as inhibition of colchicine-induced increase in intracellular calcium level at 100 uM by FLIPR assay.

For test [5], the target named is T5, Taste receptor type 2 member 38 (Homo sapiens) (UniProt P59533).
T5 sequence (whole entry): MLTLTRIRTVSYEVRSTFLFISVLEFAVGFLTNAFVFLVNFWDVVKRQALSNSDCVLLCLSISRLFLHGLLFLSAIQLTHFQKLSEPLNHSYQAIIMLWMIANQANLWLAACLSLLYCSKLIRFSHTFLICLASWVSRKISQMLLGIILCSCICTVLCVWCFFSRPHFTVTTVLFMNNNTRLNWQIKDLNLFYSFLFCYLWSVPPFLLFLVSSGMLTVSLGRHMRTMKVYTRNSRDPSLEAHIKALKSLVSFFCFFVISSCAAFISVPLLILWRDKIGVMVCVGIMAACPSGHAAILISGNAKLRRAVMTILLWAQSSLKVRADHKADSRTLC
As to the kind of experiment: Antagonist activity at recombinant human N-terminal rat ST3 receptor-fused TAS2R38 expressed in HEK293T cells co-expressing Galpha16gust44 assessed as inhibition of phenylthiocarbamide-induced increase in intracellular calcium level at 100 uM by FLIPR assay.

For test [6], the target named is Taste receptor type 2 member 45 (Homo sapiens) (UniProt P59539). As to the kind of experiment: Agonist activity at recombinant human N-terminal rat ST3 receptor-fused TAS2R45 expressed in HEK293T cells co-expressing Galpha16gust44 assessed as increase in intracellular calcium level at 100 uM by FLIPR assay.
The target of test [7] is T6, Taste receptor type 2 member 50 (Homo sapiens) (UniProt P59544).
T6 sequence (whole entry): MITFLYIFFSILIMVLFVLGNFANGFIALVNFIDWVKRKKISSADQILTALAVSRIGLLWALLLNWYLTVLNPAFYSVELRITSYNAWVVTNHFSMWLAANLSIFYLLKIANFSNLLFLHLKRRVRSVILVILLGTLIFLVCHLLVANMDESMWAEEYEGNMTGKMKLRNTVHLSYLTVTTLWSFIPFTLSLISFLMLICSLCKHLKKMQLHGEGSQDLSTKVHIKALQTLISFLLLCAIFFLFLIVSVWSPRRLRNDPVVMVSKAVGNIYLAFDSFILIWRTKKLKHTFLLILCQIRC
As to the kind of experiment: Antagonist activity at recombinant human N-terminal rat ST3 receptor-fused TAS2R50 expressed in HEK293T cells co-expressing Galpha16gust44 assessed as inhibition of andrographolide-induced increase in intracellular calcium level at 100 uM by FLIPR assay.

Activity calls are given as the source filed them. The rule behind the calls is not given here.

Taste receptor type 2 member 45 (Homo sapiens), sequence (P59539 whole entry, the tested form may be a part): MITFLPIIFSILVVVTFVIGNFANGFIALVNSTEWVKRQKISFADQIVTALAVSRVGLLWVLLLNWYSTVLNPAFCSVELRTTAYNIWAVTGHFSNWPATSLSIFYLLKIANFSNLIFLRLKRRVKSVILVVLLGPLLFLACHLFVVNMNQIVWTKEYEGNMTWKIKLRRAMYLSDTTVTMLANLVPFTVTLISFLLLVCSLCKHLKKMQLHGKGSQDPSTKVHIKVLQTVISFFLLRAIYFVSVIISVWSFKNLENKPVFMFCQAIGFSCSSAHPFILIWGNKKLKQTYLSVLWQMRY

In the case of `C/C1=C\C[C@H](O)/C(C)=C/[C@H]2OC(=O)[C@@H](C)[C@@H]2CC1`, the result in test [1] and in test [6] was inactive. For the same compound, the inhibition entry in test [2] is “Active”. Also, the inhibition result in test [3], in test [4], in test [5] and in test [7] was “inactive” in each case.
Consider `C/C1=C\C[C@H](O)[C@@H](C)C[C@H]2OC(=O)[C@@H](C)[C@@H]2CC1`, for which the inhibition result in test [2] is “Active”. Moreover, the inhibition result in test [3], in test [4], in test [5] and in test [7] was “inactive” each time.

The values are drawn from ChEMBL document CHEMBL4418912, “Methods of identifying antagonists of the hTAS2R46 bitter taste receptor” (2014).
